PubChem BioAssay (NCI)
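GI50 marks 50% less growth. Definition used: TGI = concentration required for complete inhibition of growth.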

What was measured:
Test in all cases: DTP human tumour cell line panel, 384-well format
MDA-MB-435 melanoma = test system: MDA-MB-435 melanoma
EKVX NSCLC = test system: EKVX NSCLC
KM12 colon = test system: KM12 colon
TK-10 renal = test system: TK-10 renal
NCI-H322M lung = test system: NCI-H322M lung
ACHN renal = test system: ACHN renal
MDA-MB-468 breast = test system: MDA-MB-468 breast
SN12C renal = test system: SN12C renal
SF-268 CNS = test system: SF-268 CNS
SNB-19 CNS = test system: SNB-19 CNS
OVCAR-5 ovarian = test system: OVCAR-5 ovarian
M14 melanoma = test system: M14 melanoma
MALME-3M melanoma = test system: MALME-3M melanoma
CAKI-1 renal = test system: CAKI-1 renal
MCF7 breast = test system: MCF7 breast
OVCAR-3 ovarian = test system: OVCAR-3 ovarian
SK-MEL-28 melanoma = test system: SK-MEL-28 melanoma
K-562 leukemia = test system: K-562 leukemia
RXF 393 renal = test system: RXF 393 renal
SF-295 CNS = test system: SF-295 CNS
NCI-H522 lung = test system: NCI-H522 lung
HS 578T breast = test system: HS 578T breast
OVCAR-8 ovarian = test system: OVCAR-8 ovarian
HT29 colon = test system: HT29 colon
CCRF-CEM leukemia = test system: CCRF-CEM leukemia
DU-145 prostate = test system: DU-145 prostate
SW-620 colon = test system: SW-620 colon
PC-3 prostate = test system: PC-3 prostate
MOLT-4 leukemia = test system: MOLT-4 leukemia
COLO 205 colon = test system: COLO 205 colon
UACC-257 melanoma = test system: UACC-257 melanoma
NCI/ADR-RES ovarian = test system: NCI/ADR-RES ovarian
SK-OV-3 ovarian = test system: SK-OV-3 ovarian
HOP-62 NSCLC = test system: HOP-62 NSCLC
BT-549 breast = test system: BT-549 breast
HOP-92 NSCLC = test system: HOP-92 NSCLC
NCI-H226 lung = test system: NCI-H226 lung
RPMI-8226 leukemia = test system: RPMI-8226 leukemia
NCI-H23 lung = test system: NCI-H23 lung
SK-MEL-2 melanoma = test system: SK-MEL-2 melanoma
UO-31 renal = test system: UO-31 renal
SNB-75 CNS = test system: SNB-75 CNS
HCT-116 colon = test system: HCT-116 colon
OVCAR-4 ovarian = test system: OVCAR-4 ovarian
HCC-2998 colon = test system: HCC-2998 colon
U251 glioblastoma = test system: U251 glioblastoma
HL-60(TB) leukemia = test system: HL-60(TB) leukemia

Cc1ccc2c(N)c(C(=O)N[C@H]3CCc4cc(N5CC6CCC(C5)N6)ccc4C3)sc2n1 gave a GI50 (MDA-MB-435 melanoma) of 0.207 µM, a TGI (MDA-MB-435 melanoma) of 0.804 µM and a GI50 (EKVX NSCLC) of 0.251 µM. The TGI (EKVX NSCLC) was 0.836 µM, the GI50 (KM12 colon) was 0.228 µM and the TGI (KM12 colon) was 1.2 µM. The GI50 (TK-10 renal) was 0.253 µM, the TGI (TK-10 renal) was 0.757 µM and the GI50 (NCI-H322M lung) was 0.208 µM. The TGI (NCI-H322M lung) was 0.66 µM, the GI50 (ACHN renal) was 0.101 µM and the TGI (ACHN renal) was 0.707 µM. The GI50 (MDA-MB-468 breast) was 0.206 µM, the TGI (MDA-MB-468 breast) was 0.691 µM and the GI50 (SN12C renal) was 0.124 µM. For the same molecule, the TGI (SN12C renal) was 0.647 µM, the GI50 (SF-268 CNS) was 0.12 µM and the TGI (SF-268 CNS) was 0.501 µM. The GI50 (SNB-19 CNS) was 0.293 µM, the TGI (SNB-19 CNS) was 2.14 µM and the GI50 (OVCAR-5 ovarian) was 0.277 µM. The TGI (OVCAR-5 ovarian) was 0.795 µM, the GI50 (M14 melanoma) was 0.104 µM and the TGI (M14 melanoma) was 0.343 µM. The GI50 (MALME-3M melanoma) was 0.164 µM, the TGI (MALME-3M melanoma) was 0.443 µM and the GI50 (CAKI-1 renal) was 0.234 µM. It also gave a TGI (CAKI-1 renal) of 1.11 µM, a GI50 (MCF7 breast) of 0.0949 µM and a TGI (MCF7 breast) of 1.11 µM. It also gave a GI50 (OVCAR-3 ovarian) of 0.129 µM, a TGI (OVCAR-3 ovarian) of 0.513 µM and a GI50 (SK-MEL-28 melanoma) of 0.269 µM. It also gave a TGI (SK-MEL-28 melanoma) of 0.813 µM, a GI50 (K-562 leukemia) of 0.0745 µM and a TGI (K-562 leukemia) of 1.08 µM. The GI50 (RXF 393 renal) was 0.116 µM, the TGI (RXF 393 renal) was 0.406 µM and the GI50 (SF-295 CNS) was 0.335 µM. The TGI (SF-295 CNS) was 0.919 µM, the GI50 (NCI-H522 lung) was 0.174 µM and the TGI (NCI-H522 lung) was 0.487 µM. For the same molecule, the GI50 (HS 578T breast) was 0.18 µM, the TGI (HS 578T breast) was 0.543 µM and the GI50 (OVCAR-8 ovarian) was 0.278 µM. The TGI (OVCAR-8 ovarian) was 1.08 µM, the GI50 (HT29 colon) was 0.386 µM and the TGI (HT29 colon) was 4.35 µM. For the same molecule, the GI50 (CCRF-CEM leukemia) was 0.0423 µM, the TGI (CCRF-CEM leukemia) was 0.133 µM and the GI50 (DU-145 prostate) was 0.104 µM. The TGI (DU-145 prostate) was 0.605 µM, the GI50 (SW-620 colon) was 0.207 µM and the TGI (SW-620 colon) was 1.07 µM. The GI50 (PC-3 prostate) was 0.222 µM, the TGI (PC-3 prostate) was 0.989 µM and the GI50 (MOLT-4 leukemia) was 0.0351 µM. The TGI (MOLT-4 leukemia) was 0.105 µM, the GI50 (COLO 205 colon) was 0.164 µM and the TGI (COLO 205 colon) was 0.532 µM. It also gave a GI50 (UACC-257 melanoma) of 0.194 µM, a TGI (UACC-257 melanoma) of 0.775 µM and a GI50 (NCI/ADR-RES ovarian) of 0.326 µM. For the same molecule, the TGI (NCI/ADR-RES ovarian) was 1.19 µM, the GI50 (SK-OV-3 ovarian) was 0.099 µM and the TGI (SK-OV-3 ovarian) was 0.94 µM. The GI50 (HOP-62 NSCLC) was 0.148 µM, the TGI (HOP-62 NSCLC) was 0.624 µM and the GI50 (BT-549 breast) was 0.154 µM. It also gave a TGI (BT-549 breast) of 0.423 µM, a GI50 (HOP-92 NSCLC) of 0.373 µM and a TGI (HOP-92 NSCLC) of 1.64 µM. The GI50 (NCI-H226 lung) was 0.178 µM, the TGI (NCI-H226 lung) was 0.713 µM and the GI50 (RPMI-8226 leukemia) was 0.0664 µM. For the same molecule, the TGI (RPMI-8226 leukemia) was 0.192 µM, the GI50 (NCI-H23 lung) was 0.211 µM and the TGI (NCI-H23 lung) was 0.594 µM. For the same molecule, the GI50 (SK-MEL-2 melanoma) was 0.121 µM, the TGI (SK-MEL-2 melanoma) was 0.421 µM and the GI50 (UO-31 renal) was 0.349 µM. The TGI (UO-31 renal) was 1.27 µM, the GI50 (SNB-75 CNS) was 0.219 µM and the TGI (SNB-75 CNS) was 0.682 µM. The GI50 (HCT-116 colon) was 0.155 µM, the TGI (HCT-116 colon) was 0.925 µM and the GI50 (OVCAR-4 ovarian) was 0.127 µM. It also gave a TGI (OVCAR-4 ovarian) of 0.46 µM, a GI50 (HCC-2998 colon) of 0.246 µM and a TGI (HCC-2998 colon) of 0.751 µM. For the same molecule, the GI50 (U251 glioblastoma) was 0.27 µM, the TGI (U251 glioblastoma) was 1.03 µM and the GI50 (HL-60(TB) leukemia) was 0.032 µM. It also gave a TGI (HL-60(TB) leukemia) of 0.108 µM.
